Structures can show the parent of a compound that is named as a salt.
Assays:
Format in all cases: physicochemical
[1] = Aqueous solubility at room temperature, quantitated by HPLC; conditions: for aqueous solubility at room temperature / solubility: water, HPLC, room temperature; for crystallization out of the concentrated aqueous solution: time scale of the experiment (24 hours); for solubility: thermodynamic from solid
Procedure: The free base 2-1 is a yellow powder. […] The crystals appear plate-like with most of the particles below 10 microns. […] The aqueous solubility was measured using HPLC to quantitate the compound in suspension.
The mesylate salt 2-1A is a yellow powder. […] A broad non-reversible endotherm centered around 87° C. is attributed to loss of solvent/moisture. The aqueous solubility was measured using HPLC to quantitate the compound.
The HCl salt 2-1B was also a yellow powder. […] This indicates the presence of both amorphous and crystalline material. […] The aqueous solubility was measured using HPLC to quantitate the compound.
The free base is a yellow powder which contains particles that are birefringent under polarized light indicating the presence of crystalline material. […] The aqueous solubility was measured using HPLC to quantitate the compound in an aqueous suspension.
The HCl salt is also a yellow solid, which contains particles that are birefringent under polarized light indicating the presence of crystalline material. […] The aqueous solubility was measured using HPLC to quantitate the compound in suspension.
The yellow, mesylate salt was examined under polarized light by optical microscopy. […] It is possible that the small amount of crystalline solid went undetected by optical microscopy. The aqueous solubility was measured using HPLC to quantitate the compound in suspension.
This mesylate salt 4-9A, which is a yellow powder, was examined under polarized light by optical microscopy. The crystals appear birefringent under polarized light indicating crystallinity. The crystals appear plate-like with few agglomerates. […] The aqueous solubility was measured using HPLC to quantitate the compound in suspension.

[2] = Solubility and pH of salts of 4-9 prepared in situ; conditions: for solubility: 1.05 mole equivalents of acid, 100 μL of water, spun overnight, HPLC; for pH: pH of the liquid residue of the sample
Procedure: Two forms of the mesylate salt were made: Salt 4-9A above and Salt 4-9B below. Numerous salts of 4-9 were prepared in situ and analyzed using the procedure outlined below,
3) The reagents were mixed with a Vortex mixer and left to stand at room temperature or warmed if needed to dissolve the solid.
4) 100 μL of water were added to suspend the solid.
5) Tube was then covered with aluminum foil and spun overnight on a rotator.
6) The tube was then spun in a centrifuge for 10 minutes at 10,000 RPM.
7) An aliquot was removed from the sample and dried with nitrogen overnight to produce the solid residue (salt) which was analyzed via microscopy and DCS.
8) The liquid residue from the remaining sample was used to measure pH and determine the concentration of salt by HPLC.

[3] = Measurement of salt solubility: free base 1-11 treated with acid, suspended in water, HPLC; conditions: for pH: pH in equilibrium with the solid phase, most likely lower than pH of the salt in water; for solubility: salt made in situ with 1.05-1.1 molar equivalence of acid, suspended in water several days, method overestimates the solubility
Procedure: The pH and concentration of the compound in equilibrium with the solid phase was measured by HPLC (UV-Vis detection).

[4] = Solubility of free base 1-11 at room temperature in 0.05M aqueous buffers, water, organic solvents and HPβCD
Procedure: The solubility of 1-11 at room temperature was determined in 0.05M aqueous buffers, water and several organic solvents.

[5] = Solubility of crystalline mesylate salts 1-11A and 1-11B
Procedure: The amorphous mesylate salt was recrystallized from 50:50 Ethanol:THF to give a crystalline powder (Salt 1-11A). The X-ray powder diffraction pattern (XRPD) of the recrystallized mesylate salt 1-11A (FIG. 2) is indicative of crystalline material with multiple diffraction peaks between 5° and 30° 2-theta.
A second batch of crystalline mesylate salt (Salt 1-11B) was obtained by the following procdeure. To a stirred suspension of 1-11 (4.026 g, 9.22 mmol) in MeOH was slowly added at room temperature (RT) one equivalent of a 0.3M solution of methanesulfonic acid (30.73 mL). After all the solid had dissolved, the mixture was filtered into a flask and concentrated under reduced pressure while cooled to about 10° C. The resulting solid was suspended with 200 mL of ethylacetate, filtered, and dried to afford the mesylate salt. […] This crystalline form is different by XRPD than the one recrystallized from the amorphous salt in EtOH/THF (Salt 1-11A).

For `O=C(CO)N1CCN(Cc2ccc3[nH]c(-c4cc5ccccc5[nH]c4=O)cc3c2)CC1` [Salt 3-10B, 4-(2-Hydroxy-ethanoyl)-1-[2-(2-oxo-1,2-dihydro-quinolin-3-yl)-1H-indol-5-ylmethyl]-piperazin-1-ium; methanesulfonate], the “aqueous solubility at room temperature” value ([1]; methanesulfonate) was 2.43 mg/mL.
In the case of `CN1CCN(Cc2ccc3[nH]c(-c4cc5ccccc5[nH]c4=O)cc3c2)CCC1=O.Cl` [Salt 2-1B, 4-Methyl-5-oxo-1-[2-(2-oxo-1,2-dihydro-quinolin-3-yl)-1H-indol-5-ylmethyl]-[1,4]diazepan-1-ium; methanesulfonate; chloride], the “crystallization out of the concentrated aqueous solution” value [1] is reported as “did not crystallize out” and the solubility [1] is reported as over 10200 µg/mL.
With `COCCN(C)CCOc1ccc2[nH]c(-c3cc4ccccc4[nH]c3=O)cc2c1` [4-9 Free Base, 3-(5-{2-[(2-methoxyethyl)(methyl)amino]ethoxy}-1H-indol-2-yl)-2(1H)-quinolinone] the solubility ([2]; pH 6.75, thermodynamic from solid, read-out: Solubility) was 0.075 mg/mL and the pH [2] was 6.75.
For `CS(=O)(=O)N1CCN(Cc2ccc3[nH]c(-c4cc5ccccc5[nH]c4=O)cc3c2)CC1` [Mesylate salt of 1-11], the pH [3] was 2.3 and the solubility [3] was 0.58 mg/mL.
`CS(=O)(=O)N1CCN(Cc2ccc3[nH]c(-c4cc5ccccc5[nH]c4=O)cc3c2)CC1` [Salt 1-11, 3-[5-(4-Methanesulfonyl-piperazin-1-ylmethyl)-1H-indol-2-yl]-1H-quinolin-2-one] gave a solubility ([4]; 0.05 M carbonate buffer, pH 10.09, aqueous buffer, 0.05 M Carbonate, pHfinal 10.09, room temperature) of 79 µg/mL, a solubility ([4]; 0.05 M carbonate buffer, pH 11.15, aqueous buffer, 0.05 M Carbonate, pHfinal 11.15, room temperature) of 77 µg/mL and a solubility ([4]; 0.05 M citrate buffer, pH 3.23, aqueous buffer, 0.05 M Citrate, pHfinal 3.23, room temperature) of 92 µg/mL. The solubility ([4]; 0.05 M citrate buffer, pH 4.15, aqueous buffer, 0.05 M Citrate, pHfinal 4.15, room temperature) was 73 µg/mL, the solubility ([4]; 0.05 M citrate buffer, pH 5.07, aqueous buffer, 0.05 M Citrate, pHfinal 5.07, room temperature) was 70 µg/mL and the solubility ([4]; 0.05 M citrate buffer, pH 6.01, aqueous buffer, 0.05 M Citrate, pHfinal 6.01, room temperature) was 71 µg/mL. The solubility ([4]; 0.05 M phosphate buffer, pH 6.96, aqueous buffer, 0.05 M Phosphate, pHfinal 6.96, room temperature) was 71 µg/mL, the solubility ([4]; 0.05 M phosphate buffer, pH 7.93, aqueous buffer, 0.05 M Phosphate, pHfinal 7.93, room temperature) was 74 µg/mL and the solubility ([4]; 0.05 M phosphate buffer, pH 8.86, aqueous buffer, 0.05 M Phosphate, pHfinal 8.86, room temperature) was 73 µg/mL. The solubility ([4]; 25% HPβCD in water, aqueous with cosolvent or surfactant or cyclodextrin, 25% HPβCD, native pH in water (pH = 7.5)) was 168 µg/mL, the solubility ([4]; 50% aqueous Can (probably ACN, acetonitrile), aqueous with cosolvent or surfactant or cyclodextrin, 50% Aqueous Can, room temperature) was 60 µg/mL and the solubility ([4]; Water, room temperature) was 0.03 µg/mL. It also gave a solubility ([4]; organic solvent or mixture, Acetonitrile, room temperature) of 84 µg/mL, a solubility ([4]; organic solvent or mixture, Ethanol, room temperature) of 19 µg/mL and a solubility ([4]; organic solvent or mixture, Isopropanol, room temperature) of 6.5 µg/mL. It also gave a solubility ([4]; pH 2.45, simulated gastric fluid, 0.01 N HCl, pHfinal 2.45, room temperature) of 400 µg/mL, a solubility ([4]; pH 3, aqueous with cosolvent or surfactant or cyclodextrin, 10% HPβCD, pH adjusted to ca. 3.0 with HCl) of 1740 µg/mL and a solubility ([4]; pH 3, aqueous with cosolvent or surfactant or cyclodextrin, 15% HPβCD, pH adjusted to ca. 3.0 with HCl) of 2350 µg/mL. For the same molecule, the solubility ([4]; pH 3, aqueous with cosolvent or surfactant or cyclodextrin, 20% HPβCD, pH adjusted to ca. 3.0 with HCl) was 3570 µg/mL and the solubility ([4]; pH 3, aqueous with cosolvent or surfactant or cyclodextrin, 25% HPβCD, pH adjusted to ca. 3.0 with HCl) was 4560 µg/mL.
With `CN1CCN(Cc2ccc3[nH]c(-c4cc5ccccc5[nH]c4=O)cc3c2)CCC1=O` [Salt 2-1A, 4-Methyl-5-oxo-1-[2-(2-oxo-1.2-dihydro-quinolin-3-yl)-1H-indol-5-ylmethyl]-[1,4]diazepan-1-ium; methanesulfonate; methanesulfonate] the “crystallization out of the concentrated aqueous solution” value [1] was “no crystallization was observed” and the “aqueous solubility at room temperature” value [1] was “greater than 9.89 mg/mL”.
For `O=C(CO)N1CCN(Cc2ccc3[nH]c(-c4cc5ccccc5[nH]c4=O)cc3c2)CC1` [Salt 3-10A, 4-(2-Hydroxy-ethanoyl) 1-[2-(2-oxo-1,2-dihydro-quinolin-3-yl)-1H-indol-5-ylmethyl]-piperazin-1H-ium; chloride], the “aqueous solubility at room temperature” value [1] was 1.31 mg/mL.
For `CS(=O)(=O)N1CCN(Cc2ccc3[nH]c(-c4cc5ccccc5[nH]c4=O)cc3c2)CC1` [Maleate salt of 1-11], the pH [3] was 2.5 and the solubility [3] was 0.16 mg/mL.
Molecule `COCCN(C)CCOc1ccc2[nH]c(-c3cc4ccccc4[nH]c3=O)cc2c1` [Sulfate salt of 4-9] has a solubility [2] of 4.35 mg/mL and a pH [2] of 1.40.
In the case of `CN1CCN(Cc2ccc3[nH]c(-c4cc5ccccc5[nH]c4=O)cc3c2)CCC1=O` [Salt 2-1, 3-[5-(4-Methyl-5-oxo-[1,4]diazepan-1-ylmethyl)-1H-indol-2-yl]-1H-quinolin-2-one], the “aqueous solubility at room temperature” value [1] is reported as 0.028 mg/mL.
For `CS(=O)(=O)N1CCN(Cc2ccc3[nH]c(-c4cc5ccccc5[nH]c4=O)cc3c2)CC1` [Sulfate salt of 1-11], the pH [3] was 1.5 and the solubility [3] was 0.13 mg/mL.
For `COCCN(C)CCOc1ccc2[nH]c(-c3cc4ccccc4[nH]c3=O)cc2c1.CS(=O)(=O)O` [Salt 4-9A, 2-methoxy-N-methyl-N-(2-{[2-(2-oxo-1,2-dihydroquinolin-3-yl)-1H-indol-5-yl]oxy}ethyl)ethanaminium methanesulfonate], the solubility [1] was 1500 µg/mL.
Work on `CS(=O)(=O)N1CCN(Cc2ccc3[nH]c(-c4cc5ccccc5[nH]c4=O)cc3c2)CC1` [HBr salt of 1-11] yielded a pH [3] of 2.9 and a solubility [3] of 0.20 mg/mL.
With `COCCN(C)CCOc1ccc2[nH]c(-c3cc4ccccc4[nH]c3=O)cc2c1` [HCl salt of 4-9] the solubility [2] was 22.4 mg/mL and the pH [2] was 2.34.
For `CS(=O)(=O)N1CCN(Cc2ccc3[nH]c(-c4cc5ccccc5[nH]c4=O)cc3c2)CC1` [HCl salt of 1-11], the pH [3] was 2.3 and the solubility [3] was 0.43 mg/mL.
`CS(=O)(=O)N1CCN(Cc2ccc3[nH]c(-c4cc5ccccc5[nH]c4=O)cc3c2)CC1` [Salt 1-11B] showed a solubility ([5]; Acetonitrile) of 0.03 mg/mL, a solubility ([5]; Isopropanol) of 0.003 mg/mL and a solubility ([5]; Water) of 0.09 mg/mL.
With `CS(=O)(=O)N1CCN(Cc2ccc3[nH]c(-c4cc5ccccc5[nH]c4=O)cc3c2)CC1` [Acetate salt of 1-11] the pH [3] was 3.3 and the solubility [3] was 0.091 mg/mL.
For `COCCN(C)CCOc1ccc2[nH]c(-c3cc4ccccc4[nH]c3=O)cc2c1` [Mesylate 4-9B], the solubility [2] was 22.0 mg/mL and the pH [2] was 5.08.
In the case of `O=C(CO)N1CCN(Cc2ccc3[nH]c(-c4cc5ccccc5[nH]c4=O)cc3c2)CC1` [Salt 3-10, 3-{5-[4-(2-Hydroxy-ethanoyl)-piperazin-1-ylmethyl]-1H-indol-2-yl}-1H-quinolin-2-one], the “aqueous solubility at room temperature” value [1] is reported as 0.0635 mg/mL.
With `CS(=O)(=O)N1CCN(Cc2ccc3[nH]c(-c4cc5ccccc5[nH]c4=O)cc3c2)CC1` [Salt 1-11A] the solubility ([5]; Acetonitrile) was 0.063 mg/mL, the solubility ([5]; Isopropanol) was 0.02 mg/mL and the solubility ([5]; Water) was 0.173 mg/mL.
Molecule `CS(=O)(=O)N1CCN(Cc2ccc3[nH]c(-c4cc5ccccc5[nH]c4=O)cc3c2)CC1` [Besylate salt of 1-11] has a pH [3] of 2.4 and a solubility [3] of 0.0038 mg/mL.
